This is an account of results in paper PMC9291687.

Where two headings read alike, the source gives them in different places.

One series has as its system prostate cancer (PC-3). The series can be described thus: MTT antiproliferative assay, PC-3. The conditions noted are these: for Growth inhibition (%) PC-3: 100 μM, MTT; for inhibition at 100 µM / IC50: Homo sapiens; for inhibition at 100 µM: read-out: Growth inhibition (%) PC-3; for IC50: read-out: IC50 PC-3. Background: Tetrazolium assays rely on reduction of a dye to a coloured formazan, in cell work by metabolically active cells.

A further series deals with lung cancer (A-549). In words: MTT antiproliferative assay, A-549. The conditions noted are these: for Growth inhibition (%) A549: 100 μM, MTT; for inhibition at 100 µM / IC50: Homo sapiens; for inhibition at 100 µM: A549, read-out: Growth inhibition (%) A549.
The test system of a further series is breast cancer (MCF-7). The series can be described thus: MTT antiproliferative assay, MCF-7. The conditions noted are these: for Growth inhibition (%) MCF-7: 100 μM, MTT; for inhibition at 100 µM: MCF7, read-out: Growth inhibition (%) MCF-7.
The test system of another series is colon cancer (HCT-116). The series can be described thus: MTT antiproliferative assay, HCT-116. The conditions noted are these: for Growth inhibition (%) HCT-116: 100 μM; for Growth inhibition (%) HCT-116 / Cytotoxic activity against HCT-116: MTT; for inhibition at 100 µM / IC50: Homo sapiens; for inhibition at 100 µM: HCT-116, read-out: Growth inhibition (%) HCT-116; for IC50: HCT-116, read-out: IC50 HCT-116.

Another series concerns caspase-3 in PC-3 cells. In words: Caspase-3 determination (ELISA). The format is cell-based, human. The conditions noted are these: 24 h treatment, 8a at 3.04 µM, control 84.24, mean ± SEM. (An ELISA detects its analyte on a solid surface through an enzyme-linked reagent.)
The next series deals with EGFR^T790M (Homo sapiens, UniProt P00533, T790M). In words: EGFRT790M kinase inhibitory assay (HTRF). (Time-resolved FRET reads energy transfer from a long-lived donor to a nearby acceptor.)
EGFR^T790M, sequence (P00533 25-1210 T790M): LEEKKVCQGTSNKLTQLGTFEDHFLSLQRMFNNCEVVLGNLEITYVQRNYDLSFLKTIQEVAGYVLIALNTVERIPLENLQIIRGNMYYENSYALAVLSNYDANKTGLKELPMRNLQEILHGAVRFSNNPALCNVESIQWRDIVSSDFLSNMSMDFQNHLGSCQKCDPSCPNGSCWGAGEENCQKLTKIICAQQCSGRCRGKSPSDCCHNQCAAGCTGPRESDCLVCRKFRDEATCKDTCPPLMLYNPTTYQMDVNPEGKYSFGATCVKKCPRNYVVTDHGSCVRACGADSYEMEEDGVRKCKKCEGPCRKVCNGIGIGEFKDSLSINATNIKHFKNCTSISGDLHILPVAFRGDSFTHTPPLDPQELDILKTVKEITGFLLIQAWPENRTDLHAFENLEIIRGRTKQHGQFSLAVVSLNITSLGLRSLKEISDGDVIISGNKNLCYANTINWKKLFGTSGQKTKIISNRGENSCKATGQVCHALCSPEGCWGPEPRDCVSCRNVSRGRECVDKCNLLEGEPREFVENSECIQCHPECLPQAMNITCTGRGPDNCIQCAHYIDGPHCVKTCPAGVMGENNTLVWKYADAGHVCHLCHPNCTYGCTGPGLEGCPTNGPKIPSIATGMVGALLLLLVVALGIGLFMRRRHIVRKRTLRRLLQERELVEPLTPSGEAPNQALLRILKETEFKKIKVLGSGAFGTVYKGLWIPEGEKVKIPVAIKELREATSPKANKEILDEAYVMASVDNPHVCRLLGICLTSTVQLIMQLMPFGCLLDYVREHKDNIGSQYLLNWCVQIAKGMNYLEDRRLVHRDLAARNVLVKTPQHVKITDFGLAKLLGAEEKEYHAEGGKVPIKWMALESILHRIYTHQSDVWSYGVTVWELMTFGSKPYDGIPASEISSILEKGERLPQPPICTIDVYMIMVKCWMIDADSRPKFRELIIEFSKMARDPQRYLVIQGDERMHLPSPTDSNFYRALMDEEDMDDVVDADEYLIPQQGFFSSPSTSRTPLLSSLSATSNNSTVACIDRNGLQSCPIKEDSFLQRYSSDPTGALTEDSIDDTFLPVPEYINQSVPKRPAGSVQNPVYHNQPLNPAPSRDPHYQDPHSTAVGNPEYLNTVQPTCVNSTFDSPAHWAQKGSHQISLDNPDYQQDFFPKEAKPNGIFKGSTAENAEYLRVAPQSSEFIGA

Method for EGFR^T790M: In vitro EGFR inhibitory activity was assessed using Homogeneous time-resolved fluorescence (HTRF) assay[64] as described in Supplementary data.
The IC50 values were calculated using the nonlinear regression fitting models (Graph Pad, Prism Version 5).
EGFRWT and EGFRT790M kinase inhibitory assay
Homogeneous time resolved fluorescence (HTRF) assay was applied in this test.
EGFRWT, EGFRT790M (Sigma). firstly, the EGFRWT and/or EGFRT790M and their substrates were incubated with the tested compounds in enzymatic buffer for 5 min.
into the reaction mixture to allow starting the enzymatic reaction. The assay was conducted for 30 min at room temperature. The reaction was stopped by addition of detection reagents which contain
GraphPad Prism 5.0. Three independent experiments were performed for each concentration.
Method for breast cancer (MCF-7): (§1) Preliminary screening against the cancer cell lines was performed, using doxorubicin as a reference drug at doses of 100 μM.
(§2) In vitro cytotoxicity was carried out using MTT assay protocol[63] as described in Supplementary data.
(§3) proliferative activity was assessed quantitatively as follows;
(§4) Human cancer cell lines were dropped in 96-well plates at a density of 3-8 × 10^3 cells/well.
(§5) growth medium was exchanged with 0.1 ml of fresh medium containing graded concentrations of the test compounds to be or equal DMSO and incubated for two days. Then 10 μl MTT solution (0.5 mg/ml) was added to each well, and the cells were incubated for additional 4 h. The crystals of MTT-formazan were dissolved in 100 μl of DMSO; the absorbance of each well was measured at 490 nm using an automatic ELISA reader system (TECAN, CHE). The IC50 values were calculated using the nonlinear regression fitting models (Graph Pad, Prism Version 5). The data represented the mean of three independent experiments in triplicate and were expressed as means
(§6) The results were expressed as growth inhibitory concentration (IC50) values and
Method for colon cancer (HCT-116): as §1, §2, §3, §4, §5, §6
Method for lung cancer (A-549): as §1, §2, §3, §4, §5, §6
Method for prostate cancer (PC-3): as §1, §2, §3, §4, §5, §6

Turning to “3-Amino-8–(4-chlorophenyl)-6–(2,4-dichlorophenyl)-10,10a-dihydropyrido [2,3-d][1, 2, 4]triazolo[4,3-a]pyrimidin-5(1H)-one [Compound 11a]”, the “Growth inhibition (%) PC-3” value with prostate cancer (PC-3) is listed as 30%. Also, in the series on lung cancer (A-549), the “Growth inhibition (%) A549” value was found to be 2%. Besides, the “Growth inhibition (%) MCF-7” value with breast cancer (MCF-7) is given as 7%. In the series on colon cancer (HCT-116), the “Growth inhibition (%) HCT-116” value amounted to 9%.

Turning to “3-Amino-8-(p-Tolyl)-6–(3,4,5-trimethoxyphenyl)-2,3-dihydropyrido[2,3-d][1, 2, 4]triazolo[4,3-a]pyrimidin-5(1H)-one [Compound 11e]”, in the series on prostate cancer (PC-3), the “Growth inhibition (%) PC-3” value is listed as 22%. Besides, the “Growth inhibition (%) A549” value with lung cancer (A-549) came out at 30%. Moreover, the “Growth inhibition (%) MCF-7” value in the series on breast cancer (MCF-7) is 23%. Moreover, in the series with colon cancer (HCT-116), the “Growth inhibition (%) HCT-116” value was determined as 6%.

As to `CN[C@@H]1C[C@H]2O[C@@](C)([C@@H]1OC)n1c3ccccc3c3c4c(c5c6ccccc6n2c5c31)C(=O)NC4` [Staurosporine, reference compound], the Caspase-3 level is listed as 413.1 ± 11.66 pg/mL with caspase-3 in PC-3 cells and 413.1 pg/mL in the series on caspase-3 in PC-3 cells (listed as staurosporine).

On to “3-Amino-8–(4-chlorophenyl)-6-(p-tolyl)-2,3-dihydropyrido[2,3-d][1, 2, 4] triazolo[4,3-a]pyrimidin-5(1H)-one [Compound 11b]”, for which the “Growth inhibition (%) PC-3” value in the series on prostate cancer (PC-3) is listed as 43%. Further, the “Growth inhibition (%) A549” value in the series with lung cancer (A-549) is reported as 28%. In addition, the “Growth inhibition (%) MCF-7” value in the series with breast cancer (MCF-7) amounted to 29%. Also, the “Growth inhibition (%) HCT-116” value in the series with colon cancer (HCT-116) stood at 15%.

On to `COc1cc(-c2cc(-c3ccc(Cl)cc3)nc3nc4[nH]c5ccccc5c(=O)n4c(=O)c23)cc(OC)c1OC` [Compound 8c, 2–(4-Chlorophenyl)-4–(3,4,5-trimethoxyphenyl)-5H-pyrido [2',3':4,5] pyrimido[2,1-b]quinazoline-5,7(12H)-dione], for which the melting point (as a rule, the temperature of the solid-liquid transition) was less than 300 °C. In addition, the inhibition (usually the change of the read-out against control, counted positive when it falls) at 100 µM in the series on prostate cancer (PC-3) came to 17%. In addition, the inhibition at 100 µM in the series with lung cancer (A-549) is 8%. Also, the inhibition at 100 µM in the series with breast cancer (MCF-7) (Homo sapiens) was 21%. Moreover, the inhibition at 100 µM with colon cancer (HCT-116) was determined as 9%.

With `COc1cccc2c1C(=O)c1c(O)c3c(c(O)c1C2=O)C[C@@](O)(C(=O)CO)C[C@@H]3O[C@H]1C[C@H](N)[C@H](O)[C@H](C)O1` [Doxorubicin, reference compound], the inhibition at 100 µM in the series with prostate cancer (PC-3), with lung cancer (A-549), in the series on breast cancer (MCF-7) (Homo sapiens) and in the series on colon cancer (HCT-116) was 100% throughout.

`O=c1[nH]c(=S)[nH]c2nc(-c3ccc(Cl)cc3)cc(-c3ccc(Cl)cc3Cl)c12` [Compound 7a, 7–(4-Chlorophenyl)-5–(2,4-dichlorophenyl)-2-thioxo-2,3-dihydropyrido [2,3-d]pyrimidin-4(1H)-one] had a melting point of 318 to 320 °C. In addition, the inhibition at 100 µM in the series on prostate cancer (PC-3) amounted to 12%. Also, the inhibition at 100 µM in the series with lung cancer (A-549) was 14%. In addition, in the series with breast cancer (MCF-7) (Homo sapiens), the inhibition at 100 µM was 34%. For the same molecule, the inhibition at 100 µM with colon cancer (HCT-116) was 18%.

For `COc1cc(-c2cc(-c3ccc(Cl)cc3)nc3nc4[nH]nc(-c5ccccc5)n4c(=O)c23)cc(OC)c1OC` [Compound 12c, 8-(4-Chlorophenyl)-3-phenyl-6–(3,4,5-trimethoxyphenyl)pyrido[2,3-d][1,2, 4]triazolo[4,3-a]pyrimidin-5(1H)-one], the melting point was in the range of 313 to 315 °C. Further, the inhibition at 100 µM with prostate cancer (PC-3) is 30%. The inhibition at 100 µM in the series with lung cancer (A-549) was 22%. Moreover, the inhibition at 100 µM with breast cancer (MCF-7) (Homo sapiens) is 55%. Further, in the series on colon cancer (HCT-116), the inhibition at 100 µM was 33%.

For the molecule `COc1cc(-c2cc(-c3ccc(Cl)cc3)nc3nc4[nH][nH]c(=O)n4c(=O)c23)cc(OC)c1OC` [Compound 10c, 8-(4-Chlorophenyl)-6–(3,4,5-trimethoxyphenyl)-1,2-dihydropyrido[2,3-d][1,2, 4]triazolo[4,3-a]pyrimidine-3,5-dione], the melting point was in the range of 367 to 369 °C. Also, the inhibition at 100 µM in the series with prostate cancer (PC-3) was 52%. The inhibition at 100 µM with lung cancer (A-549) was found to be 9%. The inhibition at 100 µM in the series with breast cancer (MCF-7) (Homo sapiens) amounted to 8%. Also, the inhibition at 100 µM in the series with colon cancer (HCT-116) came out at 23%.

As to `C#Cc1cccc(Nc2ncnc3cc(OCCOC)c(OCCOC)cc23)c1` [Erlotinib, reference compound], the IC50 (as a rule, the concentration at which inhibition is half-maximal) in the series on prostate cancer (PC-3) was 11.1 ± 1.07 µM; in the series on lung cancer (A-549) (A549, read-out: IC50 A-549), 6.53 ± 0.82 µM; in the series with breast cancer (MCF-7) (Homo sapiens, MCF7, read-out: IC50 MCF-7) it was 4.21 ± 0.62 µM.

Regarding `COc1cc(-c2cc(-c3ccc(C)cc3)nc3nc4[nH]nc(-c5ccccc5)n4c(=O)c23)cc(OC)c1OC` [Compound 12d, 3-Phenyl-8-(p-tolyl)-6–(3,4,5-trimethoxyphenyl)pyrido[2,3-d][1,2, 4]triazolo [4,3-a]pyrimidin-5(1H)-one], the melting point is 322 to 324 °C. For the same molecule, the inhibition at 100 µM with prostate cancer (PC-3) worked out at 14%. The inhibition at 100 µM in the series on lung cancer (A-549) was 4%. Besides, the inhibition at 100 µM in the series with breast cancer (MCF-7) (Homo sapiens) was found to be 15%. Moreover, the inhibition at 100 µM with colon cancer (HCT-116) is 5%.

Turning to “3-Amino-6–(4-methoxyphenyl)-8-(p-tolyl)-2,3-dihydropyrido[2,3-d][1, 2, 4] triazolo[4,3-a]pyrimidin-5(1H)-one [Compound 11c]”, in the series on prostate cancer (PC-3), the “Growth inhibition (%) PC-3” value is 28%. In addition, in the series on lung cancer (A-549), the “Growth inhibition (%) A549” value amounted to 26%. Also, in the series with breast cancer (MCF-7), the “Growth inhibition (%) MCF-7” value was determined as 23%. For the same molecule, the “Growth inhibition (%) HCT-116” value in the series on colon cancer (HCT-116) is listed as 3%.

The molecule `COc1cc(-c2cc(-c3ccc(C)cc3)nc3nc4[nH][nH]c(=O)n4c(=O)c23)cc(OC)c1OC` [Compound 10d, 8-(p-Tolyl)-6–(3,4,5-trimethoxyphenyl)-1,2-dihydropyrido[2,3-d][1,2, 4]triazolo [4,3-a]pyrimidine-3,5-dione] came in with a melting point of 391 to 393 °C. The inhibition at 100 µM in the series with prostate cancer (PC-3) amounted to 8%. Besides, the inhibition at 100 µM in the series on lung cancer (A-549) was determined as 2%. Also, in the series on breast cancer (MCF-7) (Homo sapiens), the inhibition at 100 µM was 5%. Besides, the inhibition at 100 µM in the series on colon cancer (HCT-116) was 5%.

As to “3-Amino-8–(4-chlorophenyl)-6–(3,4,5-trimethoxyphenyl) -2,3dihydropyrido[2,3-d][1, 2, 4]triazolo[4,3-a] pyrimidin-5(1H)-one [Compound 11d]”, the “Growth inhibition (%) PC-3” value in the series with prostate cancer (PC-3) came to 20%. Moreover, the “Growth inhibition (%) A549” value with lung cancer (A-549) amounted to 5%. The “Growth inhibition (%) MCF-7” value in the series on breast cancer (MCF-7) came out at 37%. The “Growth inhibition (%) HCT-116” value in the series with colon cancer (HCT-116) stood at 3%.

As for `COc1ccc(-c2cc(-c3ccc(C)cc3)nc3nc4[nH]nc(-c5ccccc5)n4c(=O)c23)cc1` [Compound 12b, 6-(4-Methoxyphenyl)-3-phenyl-8-(p-tolyl)pyrido[2,3-d][1,2, 4]triazolo[4,3-a]pyrimidin-5(1H)-one], the melting point lay within 325 to 327 °C. In addition, the inhibition at 100 µM with prostate cancer (PC-3) was found to be 36%. Also, in the series with lung cancer (A-549), the inhibition at 100 µM is 33%. For the same molecule, the inhibition at 100 µM with breast cancer (MCF-7) (Homo sapiens) was determined as 54%. Moreover, in the series with colon cancer (HCT-116), the inhibition at 100 µM was determined as 56%, the IC50 came to 86.3 ± 2.2 µM and the “Cytotoxic activity against HCT-116” value is “mild cytotoxic activity”.

Turning to `COc1ccc(-c2cc(-c3ccc(C)cc3)nc3nc4[nH][nH]c(=O)n4c(=O)c23)cc1` [Compound 10b, 6-(4-Methoxyphenyl)-8-(p-tolyl)-1,2-dihydropyrido[2,3-d][1,2, 4]triazolo[4,3-a]pyrimidine-3,5-dione], the melting point was 366 to 368 °C. The inhibition at 100 µM in the series with prostate cancer (PC-3) worked out at 15%. Further, the inhibition at 100 µM with lung cancer (A-549) was 7%. Also, the inhibition at 100 µM in the series on breast cancer (MCF-7) (Homo sapiens) stood at 4%. For the same molecule, the inhibition at 100 µM in the series on colon cancer (HCT-116) came out at 14%.

Consider `Cc1ccc(-c2cc(-c3ccc(Cl)cc3)nc3nc4[nH][nH]c(=O)n4c(=O)c23)cc1` [Compound 10a, 8-(4-Chlorophenyl)-6-(p-tolyl)-1,2-dihydropyrido[2,3-d][1,2, 4]triazolo[4,3-a]pyrimidine-3,5-dione], for which the melting point fell in the range of 347 to 349 °C. Besides, the inhibition at 100 µM in the series with prostate cancer (PC-3) turned out to be 29%. The inhibition at 100 µM with lung cancer (A-549) was found to be 17%. The inhibition at 100 µM in the series on breast cancer (MCF-7) (Homo sapiens) was found to be 41%. Besides, the inhibition at 100 µM in the series on colon cancer (HCT-116) was determined as 21%.

`Cc1ccc(-c2cc(-c3ccc(Cl)cc3)nc3nc4[nH]nc(-c5ccccc5)n4c(=O)c23)cc1` [Compound 12a, 8–(4-Chlorophenyl)-3-phenyl-6-(p-tolyl)pyrido[2,3-d][1,2, 4]triazolo[4,3-a]pyrimidin-5(1H)-one] showed a melting point of 315 to 317 °C. In addition, the inhibition at 100 µM in the series on prostate cancer (PC-3) is 28%. For the same molecule, in the series on lung cancer (A-549), the inhibition at 100 µM is 41%. For the same molecule, the inhibition at 100 µM in the series on breast cancer (MCF-7) (Homo sapiens) is 45%. The inhibition at 100 µM in the series on colon cancer (HCT-116) was 35%.

Molecule `COc1ccc(-c2cc(-c3ccc(C)cc3)nc3nc4[nH]c5ccccc5c(=O)n4c(=O)c23)cc1` [Compound 8b, 4–(4-Methoxyphenyl)-2-(p-tolyl)-5H-pyrido[2',3':4,5] pyrimido[2,1-b] quinazoline-5,7(12H)-dione] showed a melting point greater than 300 °C. In the series on prostate cancer (PC-3), the inhibition at 100 µM was found to be 96% and the IC50 turned out to be 18 ± 2.3 µM. Moreover, the inhibition at 100 µM in the series with lung cancer (A-549) is 94%. Also, the IC50 in the series on lung cancer (A-549) (A549, read-out: IC50 A-549, MTT, mean of at least three experiments) stood at 16 µM. In the series with breast cancer (MCF-7) (Homo sapiens), the inhibition at 100 µM was 9%. Further, in the series on colon cancer (HCT-116), the inhibition at 100 µM was 67%, the IC50 worked out at 26 ± 1.3 µM and the “Cytotoxic activity against HCT-116” value is listed as “mild cytotoxic activity”. For the same molecule, the midpoint of inhibition at EGFR^T790M, the IC50, lay at 290 nM.
